Counter-ions that a name gives are not always drawn.
Key:
Type in all cases: in vivo
[1] = test system: Rice plants (indica cultivar ‘IR 64’); experiment: Test L: vigor and harvest yield of rice crop outdoors, Dhamtari; details: for harvest yield: controls 2630 kg/ha
Description: (§1) To evaluate the effect of application of a compound of the invention on the vigor of rice crops grown under outdoor conditions, Tests 1 through 0 were conducted. “a.i.” refers to the amount of active ingredient applied.
Rice plants (indica cultivar ‘IR 64’) were transplanted into flooded 6 m×5 m test plots of clay loam soil in the Dhamtari district, State of Chhattisgarh, India, in the early spring season, and grown using local agronomic practices. After 79 days, in the hot season before monsoon arrival, aqueous mixtures containing 30 g a.i./ha of indoxacarb in form of STEWARD® Insecticide, 20 g a.i./ha of chlorantraniliprole, and 6.25, 12.5, 25 or 50 g a.i./ha of Compound 3 were applied to the foliage of the rice plants at in a spray volume of 500 L/ha using a backpack sprayer. Plots of control rice plants were sprayed with an aqueous mixture containing 30 g a.i./ha of indoxacarb in form of STEWARD® Insecticide and 20 g a.i./ha of chlorantraniliprole (i.e. no Compound 3). Each treatment and control was replicated three times, and the plots were arranged in a randomized complete block design. At the time of application of Compound 3, the pest level of rice brown planthopper (Nilaparvata lugens) was high, i.e. above the level considered economically significant.
Even though the pest level was high, at the time of treatment the plants had already reached full height and produced panicles, so the treatment with Compound 3 was too late to noticeably increase crop vigor rated by general external appearance (e.g., plant height, number of panicles). Nevertheless, the treatments substantially benefited crop vigor as measured by harvest yield. Harvest yields from the crops treated with 6.25, 12.5, 25 and 50 g a.i./ha of Compound 3 were 4630, 4830, 4730 and 4930 kg/ha, respectively, compared to 2630 kg/ha from the untreated controls.

[2] = test system: maize plants (Prairie Hybrid 2431 organic field corn); experiment: Test P: vigor (height) of maize plants in greenhouse in absence of pest pressure, surface drench
Description: In this test, the effect of a compound of the invention on the vigor of maize plants grown in a greenhouse in absence of pest pressure was measured.
Single maize seeds (Prairie Hybrid 2431 organic field corn) were planted 2.0 to 2.5 cm deep in 10 cm×10 cm×8 cm plastic pots containing either Redi-Earth sphagnum peat moss-based potting media (Sun Gro Horticulture Canada Ltd., Vancouver, British Columbia) or a 50/50 mixture of Matapeake soil and sand. Seeded pots were initially watered to a 5 cm depth and placed in a growth chamber maintained at 25° C. within a 16 h light/8 h dark photoperiod. The pots were watered whenever the soil surface dried.
After 8 days from initial watering, the potted plants were treated by applying as a surface drench 40 mL of an aqueous treatment mixture containing either 0.2 or 2.5 mg of Compound 3. To the pots of untreated control plants, 40 mL of tap water was similarly applied. Treatments and untreated controls were replicated 10 times.
Treated and untreated plants were then arranged in a complete randomized block design in a greenhouse maintained at 25.6-27.8° C. during the day and 23.0-25.0° C. at night. Supplemental lighting was added when outside light levels dropped below 200 watts m^−2 during a 16-h growing period, except that no supplemental lighting was activated when outside light energy had already accumulated to more than 5000 w h m^−2 during the growing period. Greenhouse shading closed when outside light levels rose above 600 watts m^−2 for more than 20 minutes.
No modifications to relative humidity were made. Tap water irrigation was provided twice daily as needed to maintain soil moisture. Every second or third day the plants were fertilized with irrigation water containing 100 ppm N—P—K from Peters® soluble 20-20-20 general purpose fertilizer (The Scotts Company, Marysville, Ohio, U.S.A.). The applied nutrient levels were considered less that ideal for optimal growth of maize plants.
Plant height was determined at 0, 7, 14, 21 and 28 days after treatment by measuring the length from the vertically extended longest leaf tip to the soil surface. The heights averaged across the 10 replicates are listed in Test Tables 1 and 2 for plants grown in Redi-Earth soil and Matapeake Soil/Sand, respectively.

[3] = test system: Rice plants (indica cultivar ‘Swarna’); experiment: Test N: harvest yield of rice crop outdoors, two foliar applications, Bargarh; details: applied twice, Nilaparvata lugens level high, controls 620 kg/ha
Description: as §1
Rice plants (indica cultivar ‘Swarna’) were transplanted into flooded 4 m×3 m test plots of clay loam soil in the Bargarh district, Orissa, India, during the rainy season, and grown using local agronomic practices. After 70 days, aqueous mixtures of Compound 3 were applied to the foliage of the rice plants at 12.5, 25 or 50 g a.i./ha in a spray volume of 400 L/ha using a backpack sprayer. Plots of unsprayed rice plants were used as controls. Each treatment and control was replicated three times, and the plots were arranged in a randomized complete block design. At the time of application of Compound 3, the pest level of rice brown planthopper (Nilaparvata lugens) was high, i.e. much above the level considered economically significant. 14 days after the first treatment, the foliar applications of aqueous mixtures of Compound 3 were repeated at the same application rates in a spray volume of 400 L/ha.
Harvest yields from the crops treated with 12.5, 25 and 50 g a.i./ha of Compound 3 were 3190, 3660 and 4220 kg/ha, respectively, compared to 620 kg/ha from the untreated controls.

[4] = Matapeake Soil/Sand, 0.2 mg a.i./pot
[5] = Matapeake Soil/Sand, 2.5 mg a.i./pot
[6] = Redi-Earth Soil, 0.2 mg a.i./pot
[7] = Redi-Earth Soil, 2.5 mg a.i./pot

O=c1c(-c2cccc(C(F)(F)F)c2)c([O-])[n+](Cc2cncnc2)c2ccccn12 [Compound 3, 2-hydroxy-4-oxo-1-(5-pyrimidinylmethyl)-3-[3-(trifluoromethyl)phenyl]-4H-pyrido[1,2-a]pyrimidinium inner salt]
harvest yield ([1]; 6.25 g a.i./ha with 30 g a.i./ha indoxacarb and 20 g a.i./ha chlorantraniliprole): 4630 kg/ha | harvest yield ([1]; 12.5 g a.i./ha with 30 g a.i./ha indoxacarb and 20 g a.i./ha chlorantraniliprole): 4830 kg/ha | harvest yield ([1]; 25 g a.i./ha with 30 g a.i./ha indoxacarb and 20 g a.i./ha chlorantraniliprole): 4730 kg/ha | harvest yield ([1]; 50 g a.i./ha with 30 g a.i./ha indoxacarb and 20 g a.i./ha chlorantraniliprole): 4930 kg/ha | crop vigor (visual rating, 0 to 200% scale, control = 100%) ([1]; all application rates (6.25, 12.5, 25 or 50 g a.i./ha) with 30 g a.i./ha indoxacarb and 20 g a.i./ha chlorantraniliprole, 21 days after application, Nilaparvata lugens level high): 100% | Height (cm) at Days after Treatment 0 days [2, 4]: 22 cm | Height (cm) at Days after Treatment 7 days [2, 4]: 49 cm | Height (cm) at Days after Treatment 14 days [2, 4]: 66 cm | Height (cm) at Days after Treatment 21 days [2, 4]: 76 cm | Height (cm) at Days after Treatment 28 days [2, 4]: 87 cm | Height (cm) at Days after Treatment 0 days [2, 5]: 22 cm | Height (cm) at Days after Treatment 7 days [2, 5]: 46 cm | Height (cm) at Days after Treatment 14 days [2, 5]: 65 cm | Height (cm) at Days after Treatment 21 days [2, 5]: 78 cm | Height (cm) at Days after Treatment 28 days [2, 5]: 88 cm | Height (cm) at Days after Treatment 0 days [2, 6]: 22 cm | Height (cm) at Days after Treatment 7 days [2, 6]: 53 cm | Height (cm) at Days after Treatment 14 days [2, 6]: 85 cm | Height (cm) at Days after Treatment 21 days [2, 6]: 111 cm | Height (cm) at Days after Treatment 28 days [2, 6]: 131 cm | Height (cm) at Days after Treatment 0 days [2, 7]: 21 cm | Height (cm) at Days after Treatment 7 days [2, 7]: 53 cm | Height (cm) at Days after Treatment 14 days [2, 7]: 85 cm | Height (cm) at Days after Treatment 21 days [2, 7]: 111 cm | Height (cm) at Days after Treatment 28 days [2, 7]: 137 cm | growth enhancing effect on maize plants ([2]; pest-free environment, nutrient constrained, both soils, 0.2 or 2.5 mg per pot): little growth enhancing effect was noticeable | harvest yield ([3]; 12.5 g a.i./ha foliar): 3190 kg/ha | harvest yield ([3]; 25 g a.i./ha foliar): 3660 kg/ha | harvest yield ([3]; 50 g a.i./ha foliar): 4220 kg/ha
